This note sets out measurements from patent US20250152584A1, “NLRP3 INFLAMMASOME INHIBITOR AND USES THEREOF” (TransThera Sciences (Nanjing), Inc., priority 2022, published 2025).

The term clearance denotes the rate of elimination divided by the concentration.

A short description of data set [1]: Pharmacokinetic study in SD male rats. Type of data set: in vivo. The note with it: rat, plasma; for clearance: read-out: Cl—obs iv (clearance rate) (converted); for Vd: read-out: Vss iv (volume of distribution); for bioavailability: iv 1.0 mg/kg / po 5.0 mg/kg, read-out: F % (absolute bioavailability); for Tmax: median, read-out: Tmax po (peak time of plasma concentration); for Cmax: read-out: Cmax po (peak concentration). As for the experimental part: Experimental Example 3: Pharmacokinetic Study of Compounds in SD Male Rats
Compound 54, Compound 55, Compound 174, Compound 173, and Compound 264 were prepared into solutions with a mixed solvent formulated from 5% dimethyl sulfoxide, 20% (30% solutol) and 75% normal saline, respectively; the solution of each compound was administered to SD male rats by gavage at a dose of 5.0 mg/kg; and the time points for blood collection were: 15 min, 30 min, 1 h, 2 h, 4 h, 6 h, 8 h, 10 h and 24 h. The solution of the compound was administered to male SD rats by intravenous bolus at a dose of 1.0 mg/kg, and the time points for blood collection were as follows: 5 min, 15 min, 30 min, 1 h, 2 h, 4 h, 6 h, 8 h, 10 h, and 24 h.
On the day before administration, the jugular vein of each animal was cannulated; and after administration, about 300 μL of blood was collected through the jugular vein, and then placed in an anticoagulant tube containing EDTA-K2. Blood samples were centrifuged at 12,000 rpm for 10 min at 4° C. to obtain plasma samples, and plasma was prepared within 30 min after blood collection. The plasma was stored in a −80° C. freezer before testing.
• 1. The samples were taken from the −80° C. freezer, thawed naturally at room temperature, and then vortexed for 5 min. • 2. 30 μL of a plasma sample was precisely pipetted into a 1.5 mL centrifuge tube. • 3. 750 μL of an internal standard working solution (the acetonitrile solution of tolbutamide) at a concentration of […] was added and mixed well. • 4. After vortexing for 5 min, the mixture was centrifuged at 12,000 rpm for 5 min. • 5. 50 μL of the supernatant was accurately pipetted into a 96-well plate preloaded with water at 150 μL/well. • 6. Vortexing was performed for 5 min for sufficient mixing, and LC-MS/MS analysis was then conducted.
(§1) The results of the concentrations of the compounds under test were output using Analyst 1.6.3 of AB. Parameters such as mean, standard deviation, coefficient of variation was calculated by Microsoft Excel (parameters directly output by Analyst 1.6.3 needed no calculation), and PK parameters were calculated by WinNonlin Phenoix 8.2 software NCA (Tmax as the median).

Data set [2] in a line: Pharmacokinetic study in C57BL/6J mice. The note with it: mouse, plasma, C57BL/6J female mice; for Tmax: median, read-out: Tmax po (peak time of plasma concentration); for Cmax: read-out: Cmax po (peak concentration); for clearance: read-out: Cl—obs iv (clearance rate) (converted); for Vd: read-out: Vss iv (volume of distribution); for bioavailability: iv 5 mg/kg / po 10 mg/kg, read-out: F % (absolute bioavailability). It counts as in vivo. On the procedure: Experimental Example 2: Pharmacokinetic Study of Compounds in C57BL/6J Mice
Compound 100, Compound 54, Compound 174, Compound 179, and Compound 253 were prepared into solutions with a mixed solvent formulated from 5% dimethyl sulfoxide, 20% (30% solutol) and 75% normal saline, respectively; the solution of each compound was administered to C57BL/6J female mice by gavage at a dose of 10 mg/kg; and the time points for blood collection were: 15 min, 30 min, 1 h, 2 h, 4 h, 6 h, 8 h and 24 h. The solution of the compound was administered to C57BL/6J female mice by intravenous bolus at a dose of 5 mg/kg, and the time points for blood collection were as follows: 5 min, 15 min, 30 min, 1 h, 2 h, 4 h, 6 h, 8 h, and 24 h.
Compound 1 was prepared into a solution with a mixed solvent formulated from 5% DME, 20% (30% solutol) and 75% normal saline; the solution of this compound was administered to C57BL/6J female mice by gavage at a dose of 10 mg/kg, and the time points for blood collection were: 15 min, 30 min, 1 h, 2 h, 4 h, 6 h, 8 h, and 24 h. The solution of the compound was administered to C57BL/6J female mice by intravenous bolus at a dose of 5 mg/kg, and the time points for blood collection were as follows: 5 min, 15 min, 30 min, 1 h, 2 h, 4 h, 6 h, 8 h, and 24 h.
Compound 195 was prepared into a solution with a mixed solvent formulated from 5% dimethyl sulfoxide, 20% PEG400 and 75% normal saline; the solution of this compound was administered to C57BL/6J female mice by gavage at a dose of 10 mg/kg; and the time points for blood collection were 15 min, 30 min, 1 h, 2 h, 4 h, 6 h, 8 h, and 24 b. The solution of the compound was administered to C57BL/6J female mice by intravenous bolus at a dose of 5 mg/kg, and the time points for blood collection were as follows: 5 min, 15 min, 30 min, 1 h, 2 b, 4 h, 6 h, 8 h, and 24 h.
Approximately 100 μL of blood was collected through the retroorbital venous plexus, and was then placed in an anticoagulant tube containing EDTA-K2. Blood samples were centrifuged at 12,000 rpm for 10 min at 4° C. to obtain plasma samples, and plasma was prepared within 30 min after blood collection. The plasma was stored in a −80° C. freezer before testing.
• 1. The samples were taken from the −80° C. freezer, thawed naturally at room temperature, and then vortexed for 5 min • 2. 10 μL of a plasma sample was precisely pipetted from different individuals into a 1.5 mL centrifuge tube. • 3. 300 μL of an internal standard working solution (the acetonitrile solution of tolbutamide) at a concentration of […] was added and mixed well. • 4. After vortexing for 5 min, the mixture was centrifuged at 12,000 rpm for 5 min. • 5. 50 μL of the supernatant was accurately pipetted into a 96-well plate preloaded with water at 150 μL/well. • 6. Vortexing was performed for 5 min for sufficient mixing, and LC-MS/MS analysis was then conducted.
as §1

[3] abbreviates: intravenous bolus 1.0 mg/kg, read-out: AUClast iv (area under the drug-time curve for 0-24 h).
The mark [4] stands for this setting: intravenous bolus 1.0 mg/kg, read-out: tz1/2 iv (terminal elimination half-life) (converted).
[5] abbreviates: po, gavage 5.0 mg/kg, read-out: AUClast po (area under the drug-time curve for 0-24 h).
The mark [6] stands for this setting: po, gavage 5.0 mg/kg, read-out: tz1/2 po (terminal elimination half-life) (converted).
Setting [7] is: po, gavage 10 mg/kg, read-out: AUClast po (area under the drug-time curve for 0-24 h).
[8] abbreviates: po, gavage 10 mg/kg, read-out: tz1/2 po (terminal elimination half-life) (converted).
[9] abbreviates: intravenous bolus 5 mg/kg, read-out: AUClast iv (area under the drug-time curve for 0-24 h).
[10] abbreviates: intravenous bolus 5 mg/kg, read-out: tz1/2 iv (terminal elimination half-life) (converted).

Consider `CC#Cc1ccc(-c2nnc(N[C@@H]3CCCN(C)C3)cc2C2CC2)c(O)c1` [Compound 264, (R)-2-(4-cyclopropyl-6-((1-methylpiperidin-3-yl)amino)pyridazin-3-yl)-5-(propyl-1-alkyn-1-yl)phenol], for which the AUC(0-t) in data set [1] (setting [3]) worked out at 811 ng·h/mL. Besides, in data set [1] (intravenous bolus 1.0 mg/kg), the clearance is 17.5 mL/min/kg and the Vd was 12.5 L/kg. Also, the half-life in data set [1] (setting [4]) was 8.89 h. Further, in data set [1], the bioavailability was determined as 72.8%. For the same compound, in data set [1] (po, gavage 5.0 mg/kg), the Tmax amounted to 4 h and the Cmax was determined as 230 ng/mL. Also, the AUC(0-t) in data set [1] (setting [5]) was determined as 3120 ng·h/mL. Also, in data set [1] (setting [6]), the half-life was 7.26 h.
Regarding `C#Cc1ccc(-c2nnc(N[C@@H]3CCCN(CCO)C3)cc2C)c(O)c1` [Compound 253, (R)-5-ethynyl-2-(6-((1-(2-hydroxyethyl)piperidin-3-yl)amino)-4-methylpyridazin-3-yl)phenol], in data set [2] (po, gavage 10 mg/kg), the Tmax was 0.5 h and the Cmax came to 2320 ng/mL. In addition, the AUC(0-t) in data set [2] (setting [7]) is 6900 ng·h/mL. The half-life in data set [2] (setting [8]) is 3.49 h. Also, the AUC(0-t) in data set [2] (setting [9]) amounted to 3200 ng·h/mL. In addition, in data set [2] (intravenous bolus 5 mg/kg), the clearance was 25.5 mL/min/kg and the Vd worked out at 2.76 L/kg. In data set [2] (setting [10]), the half-life was 1.5 h. Also, the bioavailability in data set [2] was determined as 106%.
On to `C#Cc1ccc(-c2nnc(N[C@@H]3CCCN(C)C3)nc2C2CC2)c(O)c1` [Compound 179, (R)-2-(5-cyclopropyl-3-((1-methylpiperidin-3-yl)amino)-1,2,4-triazin-6-yl)-5-ethynylphenol], for which the Tmax in data set [2] (po, gavage 10 mg/kg) was found to be 0.5 h. For the same compound, the AUC(0-t) is 3860 ng·h/mL in data set [2] (setting [7]) and 2470 ng·h/mL in data set [2] (setting [9]). Moreover, the Cmax in data set [2] (po, gavage 10 mg/kg) was found to be 1120 ng/mL. For the same compound, the values for the half-life in data set [2] (setting [8]) and in data set [2] (setting [10]) were 2.19 h and 2.01 h, respectively. Besides, in data set [2] (intravenous bolus 5 mg/kg), the clearance was 32.8 mL/min/kg. For the same compound, in data set [2] (intravenous bolus 5 mg/kg), the Vd came to 5.14 L/kg. In addition, the bioavailability in data set [2] worked out at 79.2%.
For `C#Cc1ccc(-c2nnc(N[C@@H]3CCCN(C)C3)cc2C2CC2)c(O)c1` [Compound 173, (R)-2-(4-cyclopropyl-6-((1-methylpiperidin-3-yl)amino)pyridazin-3-yl)-5-ethynylphenol], the AUC(0-t) in data set [1] (setting [3]) was 1100 ng·h/mL; in data set [1] (setting [5]) it was 4690 ng·h/mL. In addition, in data set [1] (intravenous bolus 1.0 mg/kg), the clearance was 14.3 mL/min/kg. Further, in data set [1] (intravenous bolus 1.0 mg/kg), the Vd came out at 6.92 L/kg. Besides, the results for the half-life in data set [1] (setting [4]) and in data set [1] (setting [6]) were 6.13 h and 5.72 h, respectively. Moreover, the bioavailability in data set [1] worked out at 85.6%. Also, the Tmax in data set [1] (po, gavage 5.0 mg/kg) stood at 4 h. In data set [1] (po, gavage 5.0 mg/kg), the Cmax came to 395 ng/mL.
As to `C#Cc1ccc(-c2nnc(N[C@@H]3CCCN(C)C3)c3ccccc23)c(O)c1` [Compound 100, (R)-5-ethynyl-2-(4-((1-methylpiperidin-3-yl)amino)phthalazin-1-yl)phenol], the Tmax in data set [2] (po, gavage 10 mg/kg) is 2 h. Moreover, the AUC(0-t) in data set [2] (setting [7]) was 10100 ng·h/mL; in data set [2] (setting [9]), 6360 ng·h/mL. For the same compound, in data set [2] (po, gavage 10 mg/kg), the Cmax stood at 1530 ng/mL. Further, the half-life is 2.76 h in data set [2] (setting [8]) and 3.04 h in data set [2] (setting [10]). The clearance in data set [2] (intravenous bolus 5 mg/kg) is 13.1 mL/min/kg. Further, in data set [2] (intravenous bolus 5 mg/kg), the Vd stood at 3.16 L/kg. The bioavailability in data set [2] is 79.4%.
Take `C#Cc1ccc(-c2nnc(N[C@H]3C[C@@](C)(O)C3)cc2C)c(O)c1` [Compound 55, 5-ethynyl-2-(6-(((cis)-3-hydroxyl-3-methylcyclobutyl)amino)-4-methylpyridazin-3-yl)phenol]: the AUC(0-t) in data set [1] (setting [3]) worked out at 5130 ng·h/mL; in data set [1] (setting [5]) it was 38500 ng·h/mL. Also, the clearance in data set [1] (intravenous bolus 1.0 mg/kg) is 3.17 mL/min/kg. The Vd in data set [1] (intravenous bolus 1.0 mg/kg) worked out at 1.12 L/kg. Moreover, the half-life in data set [1] (setting [4]) was 5.24 h; in data set [1] (setting [6]), 7.18 h. In data set [1], the bioavailability was determined as 163%. The Tmax in data set [1] (po, gavage 5.0 mg/kg) was found to be 2 h. The Cmax in data set [1] (po, gavage 5.0 mg/kg) is 3050 ng/mL.
Regarding `C#Cc1ccc(-c2nnc(N[C@@H]3CCCN(C)C3)c3c2CCCC3)c(O)c1` [Compound 1, (R)-5-ethynyl-2-(4-((1-methylpiperidin-3-yl)amino)-5,6,7,8-tetrahydrophthalazin-1-yl)phenol], in data set [2] (po, gavage 10 mg/kg), the Tmax was 0.25 h and the Cmax stood at 428 ng/mL. Also, in data set [2] (setting [7]), the AUC(0-t) turned out to be 1890 ng·h/mL. Also, the half-life in data set [2] (setting [8]) is 3 h. Moreover, in data set [2] (setting [9]), the AUC(0-t) amounted to 1820 ng·h/mL. Further, in data set [2] (intravenous bolus 5 mg/kg), the clearance was 44 mL/min/kg and the Vd was determined as 5.22 L/kg. Besides, the half-life in data set [2] (setting [10]) was 3.85 h. Also, the bioavailability in data set [2] was 49.9%.
